Where no end group is shown, it is not given here.
Target: HLA-DRB1*0401 (Homo sapiens, UniProt P01903+P01911, A100K/A169T/F76Y/I96L/K127E/L162R/M171V/N62H/P40V/Q125Y/R42H/S133A/S149N/S66Y/V115G/V209L/W38E)
Test: biochemical
Format: binding

## CC[C@H](C)[C@H](NC(=O)[C@H](CC(N)=O)NC(=O)[C@@H](N)CCC(N)=O)C(=O)N[C@@H](CC(C)C)C(=O)N[C@@H](CC(C)C)C(=O)N[C@@H](CO)C(=O)N[C@@H](CC(N)=O)C(=O)N[C@@H](C)C(=O)N1CCC[C@H]1C(=O)N[C@@H](CC(C)C)C(=O)NCC(=O)N1CCC[C@H]1C(=O)N[C@@H](CCC(N)=O)C(=O)N[C@@H](Cc1ccccc1)C(=O)N1CCC[C@H]1C(=O)O [Ty 56-70]
  IC50: 225 nM

## QNIQLSNAPLGPQFP [L59 Q]
  IC50: 750 nM

## DFSYLQDSDPDSFQD [Y449 F]
  IC50: 1470 nM

## QNILLSNQPLGPQFP [A63 Q]
  IC50: 7760 nM

## DYSFLQDSDPDSFQD [Y451 F]
  IC50: 563 nM

## QNILLSNAPQGPQFP [L65 Q]
  IC50: 2000 nM

## QNILVSNAPLGPQFP [L60 V]
  IC50: 612 nM

## QNILFSNAPLGPQFP [L60 F]
  IC50: 1100 nM

## QNILQSNAPLGPQFP [L60 Q]
  IC50: 750 nM

## QNVLLSNAPLGPQFP [I58 V]
  IC50: 957 nM

## QNILLSNAPVGPQFP [L65 V]
  IC50: 1500 nM

## QNFLLSNAPLGPQFP [I58 F]
  IC50: 55 nM

## QNILLSNAQLGPQFP [P64 Q]
  IC50: 290 nM

## QNILLSNAVLGPQFP [P64 V]
  IC50: 158 nM

## QNQLLSNAPLGPQFP [I58 Q]
  IC50: 6770 nM

## QNILLSNVPLGPQFP [A63 V]
  IC50: 12 nM

## DQSYLQDSDPDSFQD [Y449 Q]
  IC50: 918 nM

## QNIVLSNAPLGPQFP [L59 V]
  IC50: 95 nM

## QNIFLSNAPLGPQFP [L59 F]
  IC50: 321 nM

Source: paper PMC2192565 (The Journal of Experimental Medicine, 1996)
